Patent publication US20210130420A1, “RECOMBINANT BINDING PROTEINS TARGETING HER2 AND SERUM ALBUMIN, AND THEIR USES” (Molecular Partners AG, priority 2016, published 2021)
Substitutions are numbered along the chain they refer to. Where two headings read alike, the source gives them in different places. Values belong to the molecule of their own block, whether it stands above or below them.

Key:
BT474 cells = assay: BT474 cell proliferation, BrdU-labeling; assay type: cell-based, human; conditions: Homo sapiens, BT-474, read-out: cell proliferation inhibition constant IC50, BT474
Procedure: Protein #21-His and Protein #23-His, were expressed and purified as described in Example 1. Effects of the recombinant binding proteins on BT474 cell proliferation were determined by measuring DNA synthesis using BrdU-labeling (BrdU, Cell Proliferation ELISA, Roche). Briefly, 10000 BT474 cells were seeded per well in a 96 well plate in 100 ul complete medium and incubated for 24 hours. Recombinant binding proteins or controls were added for an additional 72 hours. BrdU for cell labeling was added for the last 24 hours. Labeled (proliferating) cells were detected according to the manufactures protocol. The data were analyzed using the GraphPad prism software, plotting log [c] on the x-axis against OD450-602 nm on the y-axis. Data were fitted using a non-linear regression fit (log(antagonist) vs. response—Variable slope (four parameters)) deriving IC50 values.
Protein #21 and Protein #21-His were expressed and purified as described in Example 1. Standard BrdU cell proliferation assays were performed, well-known to the person skilled in the art. Briefly, effects on cell proliferation of Protein #21-His, other compounds, or Protein #21-His in combination with other compounds, were determined by measuring DNA synthesis using BrdU-labeling (BrdU, Cell Proliferation ELISA, Roche). Briefly, 10000 cells were seeded per well in a 96 well plate in 100 μl complete medium and incubated for 24 hours. Protein #21-His and/or compounds were added for an additional 72 hours. BrdU for cell labeling was added for the last 24 hours. Labeled (proliferating) cells were detected according to the manufactures protocol. The data were analyzed using the Graph Pad prism software (log [c] vs. OD450-602 nm plot). Data were fitted using a non-linear regression fit (log(antagonist) vs. response—variable slope (four parameters)).

[1] = Pharmacokinetic analysis in mouse; assay type: in vivo
Procedure: The measurements shown in this example are the result of a half-life engineering effort as described in Example 11. Protein #21-His and Protein #23-His were expressed and purified as described in Example 1. The pharmacokinetic properties of the His-tagged proteins were assessed in mouse as described elsewhere (Zahnd, C., Kawe, M., Stumpp, M. T., de Pasquale, C., Tamaskovic, R., Nagy-Davidescu, G., Dreier, B., Schibli, R., Binz, H. K., Waibel, R., Plückthun, A., Cancer Res. 70, 1595-1605, 2010). […] Having SEQ ID NO: 16 present in the recombinant binding protein thus appears to be more favorable than having SEQ ID NO: 18 present.
Polypeptide linkers that link protein domains are well-known to the person skilled in the art. Gly-Ser-rich linkers are well-known from single-chain Fv antibody fragments, where they have proven to be most appropriate to link the two Fv polypeptide chains. […] Protein #26-His and Protein #27-His, were expressed and purified as described in Example 1. Pharmacokinetic analyses in mouse were performed as described in Example 8.
For the studies in this example Protein #21-His, Protein #24-His, Protein #28-His, Protein #29-His, and Protein #30-His were prepared according to Example 1. Protein #28-His was additionally PEGylated using a 40 kDa PEG moiety (NOF Sunbright GL2-400MA) by maleimid coupling of the PEG-moiety onto the free C-terminal cysteine of Protein #28-His, followed by purification to homogeneity using standard purification methods, procedures well known to the person skilled in the art. Pharmacokinetic analyses in mouse or cynomolgus monkey were performed as described in Examples 8 and 9.

[2] = Storage stability in PBS analysed by SDS-PAGE; assay type: physicochemical; conditions: for degradation upon prolonged incubation: in PBS at 10 mg/ml at 40° C.
Procedure: “Improved storage stability” in the context of the present invention means the reduction of the amounts of a degradation band, preferably the reduction of the amount of degradation products, as detected by a Coomassie-stained SDS-PAGE occurring after storage at 40° C. for 1 month at 10 mg/ml in PBS, by at least 5%, 10%, 15%, 20%, 25%, 30%, 35%, 40%, 45%, 50%, or 50%. Methods to assess storage stability by SDS-PAGE are well known to the person skilled in the art. Examples of designed ankyrin repeat domains and recombinant binding proteins with improved storage stability properties are given in Examples 2 and 3.
Protein #13-His, Protein #14-His and Protein #15-His were prepared as described in Example 1, and samples were concentrated to 10 mg/ml in PBS. Protein #14-His and Protein #15-His where then stored for 1 month at −80° C. or at 40° C. in glass vials, followed by analysis on SDS 15% PAGE. […] These findings illustrate that Protein #14-His has improved storage stability compared to Proteins #13-His and Protein #15-His.
A storage stability improvement is also observed, when testing the storage stability of Protein #21 and Protein #22 (recombinant binding proteins consisting of the amino acid sequences corresponding to SEQ ID NOs: 21 and 22, respectively). Protein #21 and Protein #22 are prepared as described in Example 1, samples are concentrated to 10 mg/ml in PBS and stored for 1 month at −80° C. in or at 40° C. in glass vials, followed by analysis on standard size-exclusion chromatography.

[3] = compound titrated alone or with Protein #21 at 2 nM
[4] = Protein #21 was titrated, Trametinib (10^−5 M), Cobimetinib (10^−5 M) or Salirasib (3*10^−5 M)

- IC50 (BT474 cells; [3]): 2540 nM
Molecule: Cc1nc(NC(=O)N2CCC[C@H]2C(N)=O)sc1-c1ccnc(C(C)(C)C(F)(F)F)c1 [Alpelisib]

- IC50 (BT474 cells; [3]): 204 nM
Molecule: Cc1c(CN2CCN(C(=O)[C@H](C)O)CC2)sc2c(N3CCOCC3)nc(-c3cnc(N)nc3)nc12 [Apitolisib]

- IC50 (BT474 cells; [4]): 1.02 nM
Molecule: O=C(c1ccc(F)c(F)c1Nc1ccc(I)cc1F)N1CC(O)([C@@H]2CCCCN2)C1 [Cobimetinib]

- IC50 (BT474 cells; [3]): 2600 nM
Molecule: CC(=O)c1c(C)c2cnc(Nc3ccc(N4CCNCC4)cn3)nc2n(C2CCCC2)c1=O [Palbociclib]

- IC50 (BT474 cells; [4]): 0.94 nM
Molecule: CC(C)=CCC/C(C)=C/CC/C(C)=C/CSc1ccccc1C(=O)O [Salirasib]

- IC50 (BT474 cells; [3]): 105 nM
Molecule: Cc1nc(-c2cn3c(n2)-c2ccc(-c4cnn(C(C)(C)C(N)=O)c4)cc2OCC3)n(C(C)C)n1 [Taselisib]

- IC50 (BT474 cells; [4]): 1.04 nM
Molecule: CC(=O)Nc1cccc(-n2c(=O)n(C3CC3)c(=O)c3c(Nc4ccc(I)cc4F)n(C)c(=O)c(C)c32)c1 [Trametinib]

Second part, the molecule before the results:

B1: Protein #30-His: SEQ ID NO: 30 with a His-tag (SEQ ID NO: 1) fused to its N terminus (protein)
chain: MRGSHHHHHHGSDLGKKLLEAARAGQDDEVRILMANGADVNAKDYFSHTPLHLAARNGHLKIVEVLLKAGADVNAKDFAGKTPLHLAANDGHLEIVEVLLKHGADVNAQDIFGKTPADIAADAGHEDIAEVLQKAAGGGGSGGGGSGGGGSGGGGSGSDLGKKLLEAARAGQDDEVRILMANGADVNAKDYFSHTPLHLAARNGHLKIVEVLLKAGADVNAKDFAGKTPLHLAANDGHLEIVEVLLKHGADVNAQDIFGKTPADIAADAGHEDIAEVLQKAAGGGGSGGGGSGGGGSGGGGSGSDLGAKLLSDLGVKLLWAAARGQDDEVRILLAAGADVNAKDFQGITPLHIAAQSGHLEIVEVLLKAGADVNAKDVTGDTPLHLAAQHGHLVIVEVLLKAGADVNAQDERGWTPADLAADWGHEDIAEVLQKAAGGGGSGGGGSGSDLGKKLLEAARAGQDDEVRILMANGADVNAKDEYGLTPLYLATAHGHLEIVEVLLKNGADVNAVDAIGFTPLHLAAFIGHLEIAEVLLKHGADVNAQDKFGKTAFDISIGNGNEDLAEILQKAA
modifications: His-tag; Protein comprising four designed ankyrin repeat domains
- mouse pharmacokinetic profile, two versus one serum albumin binding domain ([1]; Protein #30-His compared to Protein #29-His, FIG. 5B): benefit of having two designed ankyrin repeat domains with binding specificity for serum albumin

B2: Protein #12-His: SEQ ID NO: 12 with a His-tag; designed ankyrin repeat domain with binding specificity for serum albumin (WO2012/069654) (protein)
chain: GSDLGKKLLEAARAGQDDEVRILLKAGADVNAKDYFSHTPLHLAARNGHLKIVEVLLKAGADVNAKDFAGKTPLHLAANDGHLEIVEVLLKAGADVNAQDIFGKTPADIAADAGHEDIAEVLQKAA
modifications: His-tag; Designed ankyrin repeat domain
- degradation upon prolonged incubation [2]: degrade

B3: Protein #15-His: SEQ ID NO: 15 with a His-tag; designed ankyrin repeat domain with binding specificity for serum albumin (WO2012/069654) (protein)
chain: B2 chain with L24M, K25A, A26N, A92H
modifications: His-tag; Designed ankyrin repeat domain
- stability upon storage at −80° C. ([2]; 10 mg/ml in PBS, 1 month at −80° C., SDS 15% PAGE): equivalent stability
- degradation upon prolonged incubation [2]: degrade

B4: Protein #26-His: SEQ ID NO: 26 with a His-tag (SEQ ID NO: 1) fused to its N terminus (protein)
chain: MRGSHHHHHHGSDLGKKLLEAARAGQDDEVRILMANGADVNAKDYFSHTPLHLAARNGHLKIVEVLLKAGADVNAKDFAGKTPLHLAANDGHLEIVEVLLKHGADVNAQDIFGKTPADIAADAGHEDIAEVLQKAAGGGGSGGGGSGGGGSGGGGSGSDLGAKLLSDLGVKLLWAAARGQDDEVRILLAAGADVNAKDFQGITPLHIAAQSGHLEIVEVLLKAGADVNAKDVTGDTPLHLAAQHGHLVIVEVLLKAGADVNAQDERGWTPADLAADWGHEDIAEVLQKAAGGGGSGGGGSGSDLGKKLLEAARAGQDDEVRILMANGADVNAKDEYGLTPLYLATAHGHLEIVEVLLKNGADVNAVDAIGFTPLHLAAFIGHLEIAEVLLKHGADVNAQDKFGKTAFDISIGNGNEDLAEILQKAAGGGGSGGGGSGGGGSGGGGSGSDLGKKLLEAARAGQDDEVRILMANGADVNAKDYFSHTPLHLAARNGHLKIVEVLLKAGADVNAKDFAGKTPLHLAANDGHLEIVEVLLKHGADVNAQDIFGKTPADIAADAGHEDIAEVLQKAA
modifications: His-tag; Protein comprising four designed ankyrin repeat domains
- injected dose remaining 48 hours after intravenous injection [1]: 5.3%

B5: Protein #27-His: SEQ ID NO: 27 with a His-tag (SEQ ID NO: 1) fused to its N terminus (protein)
chain: MRGSHHHHHHGSDLGKKLLEAARAGQDDEVRILMANGADVNAKDYFSHTPLHLAARNGHLKIVEVLLKAGADVNAKDFAGKTPLHLAANDGHLEIVEVLLKHGADVNAQDIFGKTPADIAADAGHEDIAEVLQKAAGSPTPTPTTPTPTPTTPTPTPTGSDLGAKLLSDLGVKLLWAAARGQDDEVRILLAAGADVNAKDFQGITPLHIAAQSGHLEIVEVLLKAGADVNAKDVTGDTPLHLAAQHGHLVIVEVLLKAGADVNAQDERGWTPADLAADWGHEDIAEVLQKAAGSPTPTPTTPTPTPTTPTPTPTGSDLGKKLLEAARAGQDDEVRILMANGADVNAKDEYGLTPLYLATAHGHLEIVEVLLKNGADVNAVDAIGFTPLHLAAFIGHLEIAEVLLKHGADVNAQDKFGKTAFDISIGNGNEDLAEILQKAAGSPTPTPTTPTPTPTTPTPTPTGSDLGKKLLEAARAGQDDEVRILMANGADVNAKDYFSHTPLHLAARNGHLKIVEVLLKAGADVNAKDFAGKTPLHLAANDGHLEIVEVLLKHGADVNAQDIFGKTPADIAADAGHEDIAEVLQKAA
modifications: His-tag; Protein comprising four designed ankyrin repeat domains
- injected dose remaining 48 hours after intravenous injection [1]: 7%
- terminal half-life, comparison [1]: longer terminal half-life than Protein #26-His
